Reference: US10087191B2, “Piperidine derivative and preparation method and pharmaceutical use thereof” (Jiangsu Hengrui Medicine Co., Ltd., priority 2015, dated 2018)
Read-outs that look alike come from different tables or passages of the source.

Key:
Format in all cases: cell-based
MCF7 cells = assay: Inhibition of the proliferation of MCF7 cells (Cell Titer-Glo); conditions: Homo sapiens, MCF-7 cells, 72 hours, read-out: IC50 value of inhibition effect on the proliferation of MCF7 cells
Experimental: The object of this experiment was to determine the inhibition effect of the compounds on the proliferation activity of MCF7 cells, and the in vitro activity of the compounds was evaluated according to the IC50 value.
After incubation for 24 hours, the medium was removed, then 90 μl of the medium containing 2% FBS and 10 μl of the drug were added to each well, 10 μl of DMSO were added to the control group, and the blank group contained only 100 μl medium containing 2% FBS. The plate was gently shaken and incubated in a incubator at 37° C., 5% CO2. After 72 hours, 50 μl of mixed Cell Titer-Glo (Promega, Cat. No. G7571) were added to each well. The plate was shaken until the ingredients were well mixed, and placed at room temperature for 10 minutes, then the chemiluminescence signal value was determined.
The values of the chemiluminescence signals vs the logarithmic concentrations of the compounds were plotted using Graghpad Prism to obtain IC50 values.

ERα = ERα (Homo sapiens (Human), UniProt P03372); assay: Degradation effect on ERα in MCF-7 cells (ERα Duoset ELISA); conditions: read-out: IC50 value of the degradation effect on ERα
ERα, sequence (P03372 whole entry): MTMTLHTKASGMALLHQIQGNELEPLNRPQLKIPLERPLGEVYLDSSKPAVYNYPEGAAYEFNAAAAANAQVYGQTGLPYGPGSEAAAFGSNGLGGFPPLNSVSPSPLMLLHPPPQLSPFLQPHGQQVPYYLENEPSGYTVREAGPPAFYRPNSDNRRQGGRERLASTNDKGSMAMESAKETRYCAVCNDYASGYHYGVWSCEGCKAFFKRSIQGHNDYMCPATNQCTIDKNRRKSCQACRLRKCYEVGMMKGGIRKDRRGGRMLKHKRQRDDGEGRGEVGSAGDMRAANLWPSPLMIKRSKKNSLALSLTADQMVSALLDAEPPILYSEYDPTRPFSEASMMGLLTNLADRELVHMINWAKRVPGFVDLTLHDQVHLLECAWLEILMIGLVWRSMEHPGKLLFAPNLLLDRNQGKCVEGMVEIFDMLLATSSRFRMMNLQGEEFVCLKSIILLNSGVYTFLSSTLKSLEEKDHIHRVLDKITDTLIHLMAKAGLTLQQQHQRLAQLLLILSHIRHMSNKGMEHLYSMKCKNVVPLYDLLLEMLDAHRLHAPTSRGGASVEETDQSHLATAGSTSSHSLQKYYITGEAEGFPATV
Experimental: In order to determine the degradation effect on ER induced by the compounds of the present invention, the following method was used to determine the degradation effect of the compounds of the present invention on ER.
MCF-7 cell line (TChu 74, Cell Bank of Chinese Academy of Sciences typical culture preservation Committee)
ERα Duoset Kit (#DYC5715E, R&D System)
MCF-7 cells were incubated in DMEM/F-12 medium containing 10% FBS.
On the first day of the experiment, MCF-7 cells were resuspended in DMEM/F-12 medium containing 10% FBS treated by activated carbon, then inoculated into a 48-well plate with a density of 50,000 cells/well and incubated for 22-24 hours.
On the second day of the experiment, the test compound was diluted with medium and added to a 48-well plate. The ERα-capture antibody was diluted to 1 μg/ml with PBS, and added to a 96-well plate at 100 μl/well. The plate was sealed and coated overnight at room temperature.
On the third day of the experiment, the coated 96-well plate was washed twice with PBS, added with a sealing solution (1% BSA in PBS) at 110 μl/well and sealed for 1 hour at room temperature. The 48-well plate was washed once with PBS, and the residual liquid was removed. Then, 60 μl of lysis (6 M urea, 1 mM EDTA, 0.5% Triton X-100, 1 mM PMSF, Protease Inhibitor cocktail) was added to each well. After lysis on ice for 15 minutes, the diluent (1 mM EDTA, 0.5% TritonX-100 dissolved in PBS) was added. The cell-diluted lysate was transferred to a 96-well plate at 100 μl/well, then the plate was incubated at room temperature for 2 hours. The diluted primary antibody was added after the plate was washed 4 times with a washing liquid (PBST). After incubation for 1 hour, the 96-well plate was washed 4 times, and the second antibody was added, then the plate was incubated for 30 minutes. After the plate was washed with a washing liquid, TMB chromogenic solution was added and incubated for 15 minutes. The reaction was stopped by the addition of 1 M H2SO4, then the light absorption at 450 nm was read.

estrogen receptor (ER) = estrogen receptor (ER) (Homo sapiens (Human), UniProt P03372); assay: Inhibition of the binding of estrogen (E) to estrogen receptor (ER), MCF-7/ERE-luciferase reporter cells; conditions: MCF-7/ERE-luciferase cells, 0.1 nM estradiol, 24 hours; read-out: IC50 value of inhibition effect on the binding of E to ER
estrogen receptor (ER), sequence (P03372 whole entry): as above
Experimental: The inhibition effect of the compounds on the binding of E to ER in vitro was tested by the following method.
The object of this experiment was to determine the inhibition effect of the compounds on the binding of E to ER, and the in vitro activity of the compounds was evaluated according to the IC50 value.
MCF-7/ERE-luciferase cells were inoculated into the MEM medium (hyclone, SH30024.01B) containing 10% charcoal stripped FBS (Moregate, FBSF), 1% sodium pyruvate (Sigma, Cat. No. S8636), 1% nonessential amino acids (Sigma, Cat. No. M7145) and 500 μg/ml G418 in a 96-well plate with a density of 30,000 cells/well, and the cells were incubated under the conditions of 37° C. and 5% CO2. […] After incubation for 24 hours, the medium was removed, then 0.1 nM estradiol (Sigma, Cat. No. E2758) and 10 μl of the drug diluted with the medium were added to each well, and the control group was added with DMSO. The plate was gently shaken and incubated in a incubator at 37° C., 5% CO2. After 24 hours, the cell culture medium was discarded.
The inhibition effect of the compounds of the present invention on the binding of E to ER was tested by the experiment described above.

SMILES	IC50 (MCF7 cells) [nM]	DC50 (ERα) [nM]	DC50 (ERα; MCF-7 cells) [nM]	IC50 (estrogen receptor (ER)) [nM]
CC1Cc2cc3c(cc2C(c2c(F)cc(/C=C/C(=O)O)cc2F)N1CC(C)(C)F)OCO3 [Example 1, (E)-3-(3,5-difluoro-4-((5S,7R/5R,7S)-6-(2-fluoro-2-methylpropyl)-7-methyl-5,6,7,8-tetrahydro-[1,3]dioxolo[4,5-g]isoquinolin-5-yl)phenyl)acrylic acid]	0.12	0.11		
CC1Cc2c(oc3ccccc23)C(c2c(F)cc(/C=C/C(=O)O)cc2F)N1CC(C)(C)F [Example 4, (E)-3-(3,5-difluoro-4-((1R,3R/1S,3S)-2-(2-fluoro-2-methylpropyl)-3-methyl-1,2,3,4-tetrahydrobenzofuro[2,3-c]pyridin-1-yl)phenyl)acrylic acid]	0.19		0.56	
CC1Cc2c(sc3ccccc23)C(c2c(F)cc(/C=C/C(=O)O)cc2F)N1CC(C)(C)F [Example 5, (E)-3-(3,5-difluoro-4-((1R,3R/1S,3S)-2-(2-fluoro-2-methylpropyl)-3-methyl-1,2,3,4-tetrahydrobenzo[4,5]thieno[2,3-c]pyridin-1-yl)phenyl)acrylic acid]	1.2		3.94	
CC1Cc2sc3ccccc3c2C(c2c(F)cc(/C=C/C(=O)O)cc2F)N1CC(C)(C)F [Example 6, (E)-3-(3,5-difluoro-4-((1R,3R/1S,3S)-2-(2-fluoro-2-methylpropyl)-3-methyl-1,2,3,4-tetrahydrobenzo[4,5]thieno[3,2-c]pyridin-1-yl)phenyl)acrylic acid]	1.91		1.92	
CC1Cc2cc(-c3cnn(C(F)F)c3)ccc2C(c2c(F)cc(/C=C/C(=O)O)cc2F)N1CC(C)(C)F (centres unmarked) [Example 13]	0.46		6.93	
CC1Cc2cc(-c3cnn(C)c3)c(F)cc2C(c2c(F)cc(/C=C/C(=O)O)cc2F)N1CC(C)(C)F [Example 16, (E)-3-(3,5-difluoro-4-((1S,3R/1R,3S)-7-fluoro-2-(2-fluoro-2-methylpropyl)-3-methyl-6-(1-methyl-1H-pyrazol-4-yl)-1,2,3,4-tetrahydroisoquinolin-1-yl)phenyl)acrylic acid]	0.47		3.11	
CCn1cc(-c2cc3c(cc2F)C(c2c(F)cc(/C=C/C(=O)O)cc2F)N(CC(C)(C)F)C(C)C3)cn1 [Example 17, (E)-3-(4-((1S,3R/1R,3S)-6-(1-ethyl-1H-pyrazol-4-yl)-7-fluoro-2-(2-fluoro-2-methylpropyl)-3-methyl-1,2,3,4-tetrahydroisoquinolin-1-yl)-3,5-difluorophenyl)acrylic acid]	0.34		1.43	
CCCn1cc(-c2ccc3c(c2)CC(C)N(CC(C)(C)F)C3c2c(F)cc(/C=C/C(=O)O)cc2F)cn1 [Example 18, (E)-3-(3,5-difluoro-4-((1S,3R/1R,3S)-2-(2-fluoro-2-methylpropyl)-3-methyl-6-(1-propyl-1H-pyrazol-4-yl)-1,2,3,4-tetrahydroisoquinolin-1-yl)phenyl)acrylic acid]	1.03		4.2	
Cc1ncc(-c2ccc3c(c2)CC(C)N(CC(C)(C)F)C3c2c(F)cc(/C=C/C(=O)O)cc2F)o1 [Example 49, (E)-3-(3,5-difluoro-4-((1S,3R/1R,3S)-2-(2-fluoro-2-methylpropyl)-3-methyl-6-(2-methyloxazol-5-yl)-1,2,3,4-tetrahydroisoquinolin-1-yl)phenyl)acrylic acid]	1.63		6.29	
Cc1nc2ccc(-c3ccc4c(c3)CC(C)N(CC(C)(C)F)C4c3c(F)cc(/C=C/C(=O)O)cc3F)cc2s1 [Example 66, (E)-3-(3,5-difluoro-4-((1S,3R/1R,3S)-2-(2-fluoro-2-methylpropyl)-3-methyl-6-(2-methylbenzo[d]thiazol-6-yl)-1,2,3,4-tetrahydroisoquinolin-1-yl)phenyl)acrylic acid]	1.62			3.25
C[C@H]1Cc2c(oc3ccccc23)[C@H](c2c(F)cc(/C=C/C(=O)O)cc2F)N1CC(C)(C)F [Example 69, (E)-3-(3,5-difluoro-4-((1S,3S)-2-(2-fluoro-2-methylpropyl)-3-methyl-1,2,3,4-tetrahydrobenzofuro[2,3-c]pyridin-1-yl)phenyl)acrylic acid]	6.41			34
CC1Cc2c(ccc3[nH]ncc23)C(c2c(F)cc(/C=C/C(=O)O)cc2F)N1CC(C)(C)F [Example 70, (E)-3-(3,5-difluoro-4-((6S,8R/6R,8S)-7-(2-fluoro-2-methylpropyl)-8-methyl-6,7,8,9-tetrahydro-3H-pyrazolo[4,3-f]isoquinolin-6-yl)phenyl)acrylic acid]	0.14		0.77	
CC1Cc2c(ccc3c2OCO3)C(c2c(F)cc(/C=C/C(=O)O)cc2F)N1CC(C)(C)F [Example 82, (E)-3-(3,5-difluoro-4-((6S,8R/6R,8S)-7-(2-fluoro-2-methylpropyl)-8-methyl-6,7,8,9-tetrahydro-[1,3]dioxolo[4,5-f]isoquinolin-6-yl)phenyl)acrylic acid]	4.43			13.6
CC1Cc2cc3c(cc2C(c2ccc(/C=C/C(=O)O)cc2)N1CC(C)(C)F)OCO3 (centres unmarked) [Example 83, (E)-3-(4-(6-(2-fluoro-2-methylpropyl)-7-methyl-5,6,7,8-tetrahydro-[1,3]dioxolo[4,5-g]isoquinolin-5-yl)phenyl)acrylic acid]	17.5			20.5
CC1Cc2c(oc3cc(Cl)ccc23)C(c2c(F)cc(/C=C/C(=O)O)cc2F)N1CC(C)(C)F [Example 85, (E)-3-(4-((1R,3R/1S,3S)-7-chloro-2-(2-fluoro-2-methylpropyl)-3-methyl-1,2,3,4-tetrahydrobenzofuro[2,3-c]pyridin-1-yl)-3,5-difluorophenyl)acrylic acid]	7.3			21.9
C[C@@H]1Cc2cc(-c3ccc4cnccc4c3)ccc2[C@@H](c2c(F)cc(/C=C/C(=O)O)cc2F)N1CC(C)(C)F [Example 98, (E)-3-(3,5-difluoro-4-((1S,3R)-2-(2-fluoro-2-methylpropyl)-3-methyl-1,2,3,4-tetrahydro-[6,6′-biisoquinolin]-1-yl)phenyl)acrylic acid]	1.83			0.85
CC1Cc2c(ccc3[nH]ncc23)C(c2ccc(/C=C/C(=O)O)cc2)N1CC(C)(C)F [Example 101, (E)-3-(4-((6S,8R/6R,8S)-7-(2-fluoro-2-methylpropyl)-8-methyl-6,7,8,9-tetrahydro-3H-pyrazolo[4,3-f]isoquinolin-6-yl)phenyl)acrylic acid]	2.07			3.14
CC(C)CN1C(C)Cc2c(ccc3[nH]ncc23)C1c1ccc(/C=C/C(=O)O)cc1 [Example 102, (E)-3-(4-((6R,8R/6S,8S)-7-isobutyl-8-methyl-6,7,8,9-tetrahydro-3H-pyrazolo[4,3-f]isoquinolin-6-yl)phenyl)acrylic acid]	4.99			0.64
CC1Cc2c(ccc3[nH]ncc23)C(c2c(F)cc(/C=C/C(=O)O)cc2F)N1C1CCCC1 [Example 103, (E)-3-(4-((6S,8R/6R,8S)-7-cyclopentyl-8-methyl-6,7,8,9-tetrahydro-3H-pyrazolo[4,3-f]isoquinolin-6-yl)-3,5-difluorophenyl)acrylic acid]	2.95			1.32
